# Assay results from US9133225B2, “Dual targeting anticancer agents” (priority 2013, dated 2015).
# Assays:
# HCT116 cells = test: MTT cytotoxicity assay, HCT116; conditions: read-out: cytotoxicity IC50; HCT116, colon; MTT, 48 h treatment; spread in brackets
# Source text: (§1) (a) Dulbecco's Modified Eagle Medium (DMEM), Dulbecco's phosphate buffered saline (DPBS), fetal bovine serum (FBS) and 0.25% trypsin/EDTA solutions were purchased from Cellgro (Manassas, Va.). Penicillin-streptomycin solutions were purchased from Mediatech (Manassas, Va.). (b) HeLa (CCL-2TM) cells, A549, A2870, A2870/CP70, MCF-7, PC-3, and MRC-5 cells were purchased from American Type Culture Collection (ATCC, Manassas, Va., USA). (c) HCT116 cells were kindly donated by Laura Trudel (MIT). HeLa, A549, MCF-7, and MRC-5 cells were cultured using DMEM supplemented with 10% FBS and 1% penicillin-streptomycin. A2870, A2870/CP70, and PC-3 cells were cultured in RPMI supplemented with 10% FBS and 1% penicillin-streptomycin. HCT116 cells were cultured in McCoy's supplemented with 10% FBS and 1% penicillin-streptomycin. All cell-culture experiments were performed in the aforementioned media in an incubator operating at 37° C. and in the presence of a humidified atmosphere containing 5.0% CO2. Cells were harvested using a 0.25% trypsin/EDTA solution.
# (§2) The cytotoxicity of the compounds was assessed by means of the MTT assay (MTT=3-(4,5-dimethyl-2-thiazolyl)-2,5-diphenyl-2H-tetrazolium bromide). Typically, on day one, ˜1×10^3 cells were seeded into 96-well plates in 100 μL media per well. The last row of the plate was left empty as a control for background absorption. The cells were allowed to grow for 24 h in the incubator at 37° C. On day two, a series of drug dilutions in growth media were prepared immediately prior to cell treatment. The media in the wells of the 96 plates were replaced with 100 μL of growth media containing appropriate drug concentrations. The cells were treated for 48 h at 37° C. in the incubator. On day four, a stock solution of MTT (5 mg/mL in PBS buffer) was diluted with media so that, when 100 μL of the media was added to each well, 10 μL of MTT stock was applied. […] The optical density for each well at 550 nm was measured with a microplate reader.
# Bcl-xL-Bax interactions = molecular target: T1, Bcl-xL-Bax interactions (Homo sapiens, UniProt Q07817); test: Co-immunoprecipitation of Bcl-xL, probed for Bax; assay type: cell-based; conditions: A549 cells, respective IC50 values, 48 h
# T1 construct: endogenous in cells; host or cells: A549
# T1 sequence (Q07817 whole entry): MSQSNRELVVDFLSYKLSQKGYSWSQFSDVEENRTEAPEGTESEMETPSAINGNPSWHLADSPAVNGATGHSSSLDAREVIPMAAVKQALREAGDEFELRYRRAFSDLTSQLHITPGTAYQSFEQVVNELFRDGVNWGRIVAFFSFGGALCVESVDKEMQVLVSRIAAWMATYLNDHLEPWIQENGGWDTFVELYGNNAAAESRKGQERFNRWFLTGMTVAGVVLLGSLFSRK
# Procedure: α-TOS is known to disrupt Bcl-xL-Bax interactions, activate Bax, and thus mediate mitochondrial centered apoptotic cell death. Co-immunoprecipitation studies were carried out to determine whether the Pt(IV)-α-TOS conjugates could behave in a similar manner. […] Additional immunoblotting studies were carried to determine the effect of Pt(IV)(α-TOS)(OEt) treatment on transcription. […] Overall Pt(IV)(α-TOS)(OEt) was able to (1) downregulate Bcl-xL expression and (2) inhibit the interaction of Bcl-xL with Bax, a prerequisite for mitochondrial dysfunction. The former is inherent to cisplatin but not α-TOS, and the latter was inherent to α-TOS but not cisplatin.
# A549 cells (5×10^5 cells) were incubated with test compound for 48 h at 37° C. […] The resultant cell lysate was treated with protein A-agarose bead slurry (50 μL) and centrifuged to remove proteins that bind non-specifically. Anti Bcl-XL antibody (Cell Signalling Technology) was added to the lysate and incubated for 2 h at room temperature. Protein A-agarose bead slurry (50 μL) was added and the mixture was incubated at 4° C. overnight. Centrifugation allowed separation of the immunocomplex, which was washed with cold RIPA buffer (3×500 μL). The immunocomplex was then suspended in SDS-PAGE loading buffer (50 μL) and incubated at 95° C. for 10 min. The solution containing the immunocomplex was isolated by centrifugation and then analysed for Bax content using the immunoblotting analysis protocol described above.
# PC-3 cells = test: MTT cytotoxicity assay, PC-3; conditions: read-out: cytotoxicity IC50; PC-3, prostate; MTT, 48 h treatment; spread in brackets
# Source text: as §1, §2
# [1] = tested on: A2780/CP70 cells (CisPt resistant); test: MTT cytotoxicity assay, A2780/CP70; conditions: read-out: cytotoxicity IC50; A2780/CP70, ovarian (CisPt resistant); MTT, 48 h treatment; spread in brackets
# Source text: as §1
# The cytotoxicity of the compounds was assessed by means of the MTT assay (MTT=3-(4,5-dimethyl-2-thiazolyl)-2,5-diphenyl-2H-tetrazolium bromide). Typically, on day one, ˜1×10^3 cells were seeded into 96-well plates in 100 μL media per well. […] The optical density for each well at 550 nm was measured with a microplate reader.
structure (smiles),measurement,setting,value
CC[O][Pt]([NH2])([NH2])([Cl])([Cl])[O]C(=O)CCC(=O)Oc1c(C)c(C)c2c(c1C)CCC(C)(CCCC(C)CCCC(C)CCCC(C)C)O2 (stereo not drawn) [Pt(IV)(α-TOS)(OEt)],IC50,HCT116 cells,1240 nM
same,Bcl-xL-Bax interaction (Bax associated to the Bcl-xL immunoprecipitate),Bcl-xL-Bax interactions,reduced Bcl-xL-Bax interactions
same,IC50,PC-3 cells,2500 nM
same,IC50,[1],1100 nM
